Test results published in patent US10067142B2, “Method for diagnosing, treating, or preventing mood disorder” (priority 2014, dated 2018).
Where two headings read alike, the source gives them in different places.

Key:
Bcl-2 = details: Literatures 13 through 16, cited from earlier work
[1] = test system: SITH-1/Adv nasal administration mice; test: Tail suspension test of SSRI-treated SITH-1/Adv nasal administration mice; format: in vivo; details: 80 mg/L Fluoxetine solution as drinking water from 2 weeks before nasal SITH-1/Adv; test 7 days after nasal administration, 10 minutes
Protocol: 8-week-old C57BL/6NCrSlc mice were raised at a room temperature of 24±1° C. and with lights on for 12 hours and off for 12 hours. After each of the mice was anesthetized with use of isoflurane, SITH-1/Adv or empty/Adv in an amount equivalent to 2.5×10^7 ifu was dropped onto the nasal cavity, and was then sucked along with breathing. Then, the mice were returned to raising cages.
7 days after the nasal administration of SITH-1/Adv or empty/Adv, a tail suspension test was carried out for 10 minutes. A period of immobility time was measured with use of TailSuspScanTopScan (CleverSys, Inc.). The tail suspension test was carried out by suspending each mouse by taping the tail 1 cm from the end. […] In the experiment, 30 mice were used in each group.
Then, it was studied whether or not an SSRI (selective serotonin reuptake inhibitor), which is an antidepressant, would restrict an increase in immobility time, the increase being caused by the nasal administration of the SITH-1/Adv. 80 mg/L of Fluoxetine solution as drinking water was given to 6-week-old mice (see Literature 18), and then the mice were raised for 2 weeks. Then, SITH-1/Adv was nasally administered. 7 days after the nasal administration, a tail suspension test was carried out for 10 minutes. […] Statistical significance (* indicates P<0.05, ** indicates P<0.01, and *** indicates P<0.001) was calculated by use of the Mann-Whitney U-test.

HHV-6 HST strain = test: SITH-1 expression in HHV-6-infected U373 cells pre-reacted with heparin or anti-heparan sulfate peptide; format: cell-based; details: cells reacted with 10 unit/mL Novo-Heparin at 4° C. for 1 hour before infection; MOI 3; 48 hours
Protocol: U373 astrocytoma cells were removed with use of trypsin-EDTA, and then a medium (10% FBS-containing DMEM) was added, so that the resultant cells were at 1×10^5 cell/mL. Then, the U373 cells were reacted with 10 unit/mL of Novo-Heparin (Mochida Pharmaceutical Co., Ltd.) or 0.1 mM of anti-3-OS Heparan sulfate (HS) peptide trifluoroacetate salt (Sigma-Aldrich) at 4° C. for 1 hour. The U373 cells were also reacted only with a medium as a control at 4° C. for 1 hour. The resultant cells were washed 3 times with a medium. Then, the U373 cells thus washed were infected with a HHV-6 HST strain virus fluid (2.9×10^6 ffu/ml) at a MOI of 3 by centrifugation. Then, the infected cells were cultured at 37° C. for 48 hours in a CO2 incubator.
From the resultant infected cells, RNA was purified by use of RNeasy Mini Kit (Qiagen) in accordance with the standard protocol. Then, cDNA was synthesized by use of a PrimeScript RT Reagent Kit (Takara Bio). Finally, expression levels of SITH-1 and GAPDH mRNA were measured by a method similar to that used in the above (3.1).

Compound | Bcl-2 expression in the brain (Bcl-2) | further results
N[C@@H]1C[C@H]1c1ccccc1 (racemic) [tranylcypromine] | promote Bcl-2 expression in the brain | –
CNCCC(Oc1ccc(C(F)(F)F)cc1)c1ccccc1 (stereo not shown) [Fluoxetine] | promotes Bcl-2 expression | Bcl-2 expression in the brain (Bcl-2; listed as fluoxetine): promote Bcl-2 expression in the brain; immobility time increases in tail suspension test [1]: restricted
CN(C)CCC=C1c2ccccc2CCc2ccccc21 [amitriptyline] | promote Bcl-2 expression in the brain | –
CNCCCN1c2ccccc2CCc2ccccc21 [desipramine] | promote Bcl-2 expression in the brain | –
CN(C)CCCN1c2ccccc2CCc2ccccc21 [imipramine] | promote Bcl-2 expression in the brain | –
CCOc1ccccc1OC(c1ccccc1)C1CNCCO1 (stereo not shown) [reboxetine] | promote Bcl-2 expression in the brain | –
COc1ccc(C(CN(C)C)C2(O)CCCCC2)cc1 (stereo not shown) [venlafaxine] | promote Bcl-2 expression in the brain | –
heparin | – | SITH-1 expression in U373 cells (HHV-6 HST strain): restricted
